Like-named read-outs stand apart in the source and are kept apart here.
Key:
[1] = test system: P. falciparum stage V gametocytes; test: Gametocytocidal ATP bioluminescence assay (single point 5 μM and 1 μM, dose-response); assay type: cell-based, Plasmodium falciparum; settings: for Ratio IC50 HepG2/IC50 P. falciparum: IC50 HepG2 divided by IC50 P. falciparum gametocytes
[2] = test system: luciferase reaction (BacTiter-Glo); test: Interference assay (inhibition of the BacTiter-Glo luciferase reaction); assay type: biochemical; set-up: concentration or dose not given beside the values; settings: ATP interference assay
Experimental: To discard possible false-positive results, we performed an interference assay in parallel. […] […]. The ATP solution was made by dissolving ATP powder (ATP standard from the ATPlite 1 step assay kit, reference 6016731, Perkin Elmer) in culture medium. The positive control used was the Luciferase Inhibitor I Calbiochem (Merck, 119113) at 100 μM.

[3] = Cytotoxicity in HepG2 cells (intracellular ATP, ATPlite, 48 h); assay type: cell-based, human; settings: human, HepG2 cells
HepG2 cells = test: as above; assay type: cell-based, human; settings: IC50 HepG2 divided by IC50 P. falciparum gametocytes
[4] = test system: P. falciparum asexual stages; settings: TCAMS data, cited from earlier work
[5] = Plasmodium falciparum, P. falciparum gametocytes, average, read-out: IC50 Pf Gametocytes average, IC50 (µM) average
[6] = Plasmodium falciparum, sexual stages (gametocytes), dose-response, read-out: IC50 sexual
[7] = IC50 per ratio column head, unit inferred, read-out: Cytotoxicity in HepG2
[8] = P. falciparum asexual stages, read-out: IC50 (µM) Pf asexual stages
[9] = asexual stages, read-out: IC50 asexual
[10] = HepG2, 48 h exposure, intracellular ATP, read-out: IC50 (μM) Cytotoxicity HepG2
[11] = sexual stages (gametocytes), dose-response, read-out: IC50 sexual

Structure (SMILES) | % Control luminiscence [2] | Ratio IC50 HepG2/IC50 P. falciparum [1] | IC50 [1, 5] | IC50 [1, 6] | IC50 at 48 h [3, 7] | Ratio IC50 HepG2/IC50 P. falciparum (HepG2 cells) | IC50 [4, 8] | IC50 [4, 9] | IC50 at 48 h [3, 10] | IC50 [1, 11] | IC50 ([1]; Plasmodium falciparum, gametocytes (S9 Table), read-out: pIC50game (converted)) | inhibition at 5 µM ([1]; Plasmodium falciparum, gametocytes, primary screen at 5 μM (S9 Table, CSA analogs))
Cn1nc(C(F)(F)F)c(-c2ccc(Br)cc2)c1NC(=O)Cc1ccccc1F [TCMDC-123792] | 100% | >14 | 1.79 µM | 1.79 µM | > 25 µM | >14 | 0.16 µM | 0.157 µM |  |  |  | 
COc1cc2nc(N3CCN(c4nc(N)c5cc(OC)c(OC)cc5n4)CC3)nc(N)c2cc1OC [TCMDC-123865] | 100% | >96 | 0.26 µM |  | > 25 µM | >96 | 0.15 µM | 0.146 µM |  |  |  | 
C=CCN(C(=O)c1ccc(Cl)c([N+](=O)[O-])c1)c1nc(-c2ccccc2)cs1 [TCMDC-124436] | 100% | >237 | 0.11 µM | 0.105 µM | > 25 µM | >237 | 0.4 µM | 0.398 µM |  |  |  | 
Cc1cc(Nc2ccncc2)n2nc(C)c(-c3ccc(Cl)cc3)c2n1 [TCMDC-124478] | 100% | >55 | 0.91 µM | 0.913 µM | > 50 µM | >55 | 0.16 µM | 0.157 µM | > 25 µM |  |  | 
CCc1nn2c(Nc3ccncc3)cc(C)nc2c1-c1ccccc1 [TCMDC-124917] | 93% | >13 | 1.9 µM | 1.9 µM | > 25 µM | >13 | 0.2 µM | 0.203 µM |  |  |  | 
CCN(CC)CCCOC(=O)c1ccc2c(c1)-c1ccc(C(=O)OCCCN(CC)CC)c3cccc-2c13 [TCMDC-125491] | 96% | 140 | 0.14 µM |  | 20 µM | 140 |  | 0.933 µM |  | 0.143 µM |  | 
Fc1ccc(NC(=S)NN=Cc2ccccn2)cc1 [TCMDC-125521] | 100% | 195 | 0.12 µM |  | 23.4 µM | 195 | 0.77 µM | 0.775 µM | 23 µM |  |  | 
COc1ccc(CNCc2ccc(F)cc2)cc1-c1ccc(OC)c(S(=O)(=O)NCCN2CCCC2)c1 [TCMDC-132295] | 99% | 16 | 0.72 µM |  | 11.4 µM | 16 |  | 0.786 µM |  | 0.717 µM |  | 
NCc1ccc(CNCc2cccc(-c3ccc(-c4nc5ccccc5[nH]4)cc3)c2)cc1 [TCMDC-132815] | 100% | 45 | 0.48 µM |  | 21.8 µM | 45 |  | 0.717 µM |  | 0.483 µM |  | 
Fc1ccc2[nH]c(-c3cccc(-c4cccc(CNCCN5CCNCC5)c4)c3)nc2c1 [TCMDC-132860] | 100% | 27 | 0.74 µM | 0.737 µM | 19.6 µM | 27 | 0.84 µM | 0.842 µM | 20 µM |  |  | 
Fc1ccc2[nH]c(-c3cccc(-c4ccc(CNCCN5CCNCC5)cc4)c3)nc2c1 [TCMDC-132863] | 100% | 17 | 1.45 µM | 1.45 µM | 24.2 µM | 17 | 0.9 µM | 0.904 µM | 24 µM |  |  | 
CC(C)CCNC(=O)c1cnc2c(O)cccc2c1Nc1cccc(NC(=O)c2ccc(F)cc2)c1.O=C(O)C(F)(F)F [TCMDC-139606] | 98% | 4 | 1.27 µM |  | 5.27 µM |  |  | 0.913 µM |  |  |  | 

The next lines start with results.

% Control luminiscence [2] | Structure (SMILES) | Ratio IC50 HepG2/IC50 P. falciparum [1] | IC50 [1, 5] | IC50 [1, 6] | IC50 at 48 h [3, 7] | Ratio IC50 HepG2/IC50 P. falciparum (HepG2 cells) | IC50 [4, 8] | IC50 [4, 9] | IC50 at 48 h [3, 10] | IC50 [1, 11] | IC50 ([1]; Plasmodium falciparum, gametocytes (S9 Table), read-out: pIC50game (converted)) | inhibition at 5 µM ([1]; Plasmodium falciparum, gametocytes, primary screen at 5 μM (S9 Table, CSA analogs))
100% | Cc1ccc(C)c(CC(=O)N2CCC(n3c(C)nc4ccc(F)cc43)CC2)c1 [TCMDC-124790] | >27 | 0.92 µM | 0.923 µM | > 25 µM | >27 | 0.19 µM | 0.193 µM |  |  |  | 
100% | COc1cccc(CC(=O)N2CCC(n3c(C)nc4ccc(C)cc43)CC2)c1 [TCMDC-124791] | >53 | 0.47 µM |  | > 25 µM | >53 | 0.11 µM | 0.114 µM |  |  |  | 
100% | O=C(c1ccc([N+](=O)[O-])o1)N1CCC(Cc2ccc(C(F)(F)F)cc2)CC1 [TCMDC-124805] | 55 | 0.26 µM | 0.257 µM | 14.1 µM | 55 | 0.17 µM | 0.166 µM | 14 µM |  |  | 
100% | Cc1cc(Nc2ccncc2)n2nc(C)c(-c3ccccc3Cl)c2n1 [TCMDC-124918] | >13 | 1.94 µM | 1.94 µM | > 25 µM | >13 | 0.65 µM | 0.654 µM |  |  |  | 
100% | COc1ccc(NC(=O)C2c3ccccc3C(=O)N(CC(C)C)C2c2cccs2)cc1OC (stereo not drawn) [TCMDC-125289] | >58 | 0.43 µM | 0.427 µM | > 25 µM | >58 | 0.2 µM | 0.203 µM |  |  |  | 
100% | c1ccc2sc(Sc3ncnc4sccc34)nc2c1 [TCMDC-125539] | >50 | 0.5 µM | 0.497 µM | > 25 µM | >50 | 0.73 µM | 0.734 µM |  |  |  | 
100% | COc1cccc(C(=O)NC(C=Cc2ccccc2)c2cc(Cl)c3cccnc3c2O)c1 (stereo not drawn) [TCMDC-125550] | >43 | 0.59 µM |  | > 25 µM | >43 |  | 0.859 µM |  | 0.585 µM |  | 
100% | O=[N+]([O-])c1ccc(C=NNc2nc(Nc3ccccc3)nc(Nc3ccccc3)n2)o1 [TCMDC-125802] | 11 | 1.31 µM |  | 14.8 µM | 11 |  | 0.837 µM |  | 1.31 µM |  | 
100% | CCN(CC)C(=NC(=N)Nc1ccc(Cl)cc1)NCCCCCCCCNC(=NC(=N)Nc1ccc(Cl)cc1)N(CC)CC [TCMDC-131812] | >24 | 1.03 µM |  | > 25 µM | >24 |  | 0.403 µM |  |  |  | 
100% | COc1ccc(CNC2Cc3ccccc3C2)cc1-c1ccc(OC)c(S(=O)(=O)NCCN2CCCC2)c1 [TCMDC-132251] | 15 | 1.14 µM |  | 16.6 µM | 15 |  | 0.773 µM |  |  |  | 
100% | c1cc(CNCCN2CCNCC2)cc(-c2cccc(-c3nc4ccccc4[nH]3)c2)c1 [TCMDC-132859] | 27 | 0.71 µM |  | 19.3 µM | 27 | 0.96 µM | 0.959 µM | 19 µM |  |  | 
100% | Cc1cccc2nc(-c3ccc(-c4cccc(CNCCN5CCNCC5)c4)cc3)[nH]c12 [TCMDC-132867] | 16 | 0.84 µM |  | 13.4 µM | 16 | 1.23 µM | 1.23 µM | 13 µM |  |  | 
100% | Fc1ccc2[nH]c(-c3ccc(-c4ccc(CNCCN5CCNCC5)cc4)s3)nc2c1 [TCMDC-132869] | >47 | 0.53 µM |  | > 25 µM | >47 | 0.78 µM | 0.779 µM |  |  | 0.53 µM | 101%
100% | COc1cc2nc(N3CCC(CNCc4ccc(-c5ccc(C(F)(F)F)cc5)cc4)CC3)nc(N)c2cc1OC [TCMDC-138757] | <88 | 0.0177 µM |  | < 1.56 µM |  |  | 0.087 µM |  | 0.018 µM |  | 
100% | COc1ccc(CNC(=O)c2cnc3c(O)cccc3c2Nc2cccc(NC(=O)c3ccc(Cl)c(Cl)c3)c2)cc1.O=C(O)C(F)(F)F [TCMDC-139607] | <2.3 | 0.68 µM |  | < 1.56 µM |  |  | 0.604 µM |  |  |  | 
100% | COc1cc(NCC(C)CNCc2cn(Cc3ccccc3)c3ccccc23)nc2ccccc12 (stereo not drawn) [TCMDC-140496] | 3 | 1.71 µM |  | 5 µM |  |  | 0.633 µM |  |  |  | 

Reference: PMC4552634, “A New Set of Chemical Starting Points with Plasmodium falciparum Transmission-Blocking Potential for Antimalarial Drug Discovery” (PLoS ONE, 2015)
